# Reference: patent publication US20090298834A1, “4-(AMINOMETHYL)CYCLOHEXANAMINE DERIVATIVES AS CALCIUM CHANNEL BLOCKERS” (priority 2008, published 2009)
# What was measured:
# [1] = biological target: T1, human α1G T-type channels (Homo sapiens, UniProt O43497); assay: T-type calcium channel block, whole cell patch clamp (α1G); format: cell-based; settings: HEK cells stably expressing human α1G; mainly non-inactivated protocol; values above 10 μM represented as 10 μM, values below 0.30 μM represented as 0.30 μM
# T1 construct: expressed in transfected cells; host or cells: HEK 293
# In short: (§1)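 Whole-cell patch clamp was run on HEK293 cells stably expressing human α1G or α1H. Cells were held at −110 mV and given a 1 s pre-pulse to −100 mV (non-inactivating protocol) before a 50 ms test pulse to −40 mV. Compounds were applied by gravity in external solution with 0.1-0.01% DMSO, and IC50 values are in μM, capped at 10 μM.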
# [2] = biological target: T2, human α1H T-type channels (Homo sapiens, UniProt O95180); assay: T-type calcium channel block, whole cell patch clamp (α1H); format: cell-based; settings: HEK cells stably expressing human α1H; mainly non-inactivated protocol; values above 10 μM represented as 10 μM
# T2 construct: expressed in transfected cells; host or cells: HEK 293
# In short: as §1
# T2 sequence (O95180 whole entry): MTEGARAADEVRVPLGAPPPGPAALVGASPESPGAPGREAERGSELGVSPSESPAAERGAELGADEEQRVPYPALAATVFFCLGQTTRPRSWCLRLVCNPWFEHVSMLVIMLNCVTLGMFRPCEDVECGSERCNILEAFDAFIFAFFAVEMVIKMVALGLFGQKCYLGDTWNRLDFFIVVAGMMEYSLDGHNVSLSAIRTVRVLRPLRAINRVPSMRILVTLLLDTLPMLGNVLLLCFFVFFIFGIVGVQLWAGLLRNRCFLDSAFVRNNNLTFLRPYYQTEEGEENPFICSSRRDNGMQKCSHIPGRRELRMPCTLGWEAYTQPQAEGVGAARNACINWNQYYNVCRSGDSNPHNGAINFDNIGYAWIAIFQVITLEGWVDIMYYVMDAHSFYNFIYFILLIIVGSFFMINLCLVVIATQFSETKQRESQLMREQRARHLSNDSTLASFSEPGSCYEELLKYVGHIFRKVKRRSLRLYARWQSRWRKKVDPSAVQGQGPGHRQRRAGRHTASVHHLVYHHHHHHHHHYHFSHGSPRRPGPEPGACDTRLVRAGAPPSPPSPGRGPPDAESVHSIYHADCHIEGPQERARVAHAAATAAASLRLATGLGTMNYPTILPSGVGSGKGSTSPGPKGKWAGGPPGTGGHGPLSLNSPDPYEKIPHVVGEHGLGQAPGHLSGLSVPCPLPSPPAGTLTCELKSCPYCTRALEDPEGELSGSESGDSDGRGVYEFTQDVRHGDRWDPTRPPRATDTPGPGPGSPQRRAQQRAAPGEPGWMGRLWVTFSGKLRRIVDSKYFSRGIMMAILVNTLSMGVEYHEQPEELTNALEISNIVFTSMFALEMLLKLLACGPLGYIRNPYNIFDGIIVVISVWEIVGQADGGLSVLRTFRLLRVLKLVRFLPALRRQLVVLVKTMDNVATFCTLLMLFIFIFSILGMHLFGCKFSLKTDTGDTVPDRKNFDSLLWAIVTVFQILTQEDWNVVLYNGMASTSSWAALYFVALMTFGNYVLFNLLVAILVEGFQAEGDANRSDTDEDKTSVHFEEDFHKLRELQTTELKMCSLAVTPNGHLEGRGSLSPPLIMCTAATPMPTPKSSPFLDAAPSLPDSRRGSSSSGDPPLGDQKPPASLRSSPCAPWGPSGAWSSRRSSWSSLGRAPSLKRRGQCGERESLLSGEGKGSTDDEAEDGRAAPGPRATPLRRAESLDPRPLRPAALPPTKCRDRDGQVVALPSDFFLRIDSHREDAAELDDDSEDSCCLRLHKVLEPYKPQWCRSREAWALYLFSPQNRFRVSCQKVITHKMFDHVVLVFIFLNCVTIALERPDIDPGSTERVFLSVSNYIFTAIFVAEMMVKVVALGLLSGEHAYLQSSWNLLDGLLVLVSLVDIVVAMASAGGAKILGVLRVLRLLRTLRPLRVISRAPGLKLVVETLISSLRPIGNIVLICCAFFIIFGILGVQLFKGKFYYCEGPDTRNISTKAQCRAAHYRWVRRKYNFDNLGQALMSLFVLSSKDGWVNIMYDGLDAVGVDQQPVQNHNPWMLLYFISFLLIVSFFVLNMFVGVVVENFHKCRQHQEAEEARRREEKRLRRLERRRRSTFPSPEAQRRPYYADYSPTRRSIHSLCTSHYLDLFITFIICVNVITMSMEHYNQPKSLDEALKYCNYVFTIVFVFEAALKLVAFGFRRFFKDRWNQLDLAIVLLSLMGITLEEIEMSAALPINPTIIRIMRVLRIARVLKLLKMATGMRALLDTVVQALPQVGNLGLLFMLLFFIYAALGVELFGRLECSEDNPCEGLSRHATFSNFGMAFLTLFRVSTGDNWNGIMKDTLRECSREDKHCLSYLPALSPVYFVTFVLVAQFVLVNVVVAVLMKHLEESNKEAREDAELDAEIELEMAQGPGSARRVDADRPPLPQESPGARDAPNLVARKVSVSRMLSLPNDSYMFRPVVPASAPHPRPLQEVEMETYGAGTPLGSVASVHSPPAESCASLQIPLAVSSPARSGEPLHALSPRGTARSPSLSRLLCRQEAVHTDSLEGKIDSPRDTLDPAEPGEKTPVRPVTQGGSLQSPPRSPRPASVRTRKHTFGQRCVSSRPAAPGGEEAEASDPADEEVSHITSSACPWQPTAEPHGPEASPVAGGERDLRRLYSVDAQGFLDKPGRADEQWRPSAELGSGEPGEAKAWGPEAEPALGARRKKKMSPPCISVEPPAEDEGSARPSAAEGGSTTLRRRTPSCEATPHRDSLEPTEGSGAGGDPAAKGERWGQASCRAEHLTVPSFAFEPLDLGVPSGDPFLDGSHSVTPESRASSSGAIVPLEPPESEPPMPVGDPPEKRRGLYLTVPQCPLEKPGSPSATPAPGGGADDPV
# T1 sequence (O43497 whole entry): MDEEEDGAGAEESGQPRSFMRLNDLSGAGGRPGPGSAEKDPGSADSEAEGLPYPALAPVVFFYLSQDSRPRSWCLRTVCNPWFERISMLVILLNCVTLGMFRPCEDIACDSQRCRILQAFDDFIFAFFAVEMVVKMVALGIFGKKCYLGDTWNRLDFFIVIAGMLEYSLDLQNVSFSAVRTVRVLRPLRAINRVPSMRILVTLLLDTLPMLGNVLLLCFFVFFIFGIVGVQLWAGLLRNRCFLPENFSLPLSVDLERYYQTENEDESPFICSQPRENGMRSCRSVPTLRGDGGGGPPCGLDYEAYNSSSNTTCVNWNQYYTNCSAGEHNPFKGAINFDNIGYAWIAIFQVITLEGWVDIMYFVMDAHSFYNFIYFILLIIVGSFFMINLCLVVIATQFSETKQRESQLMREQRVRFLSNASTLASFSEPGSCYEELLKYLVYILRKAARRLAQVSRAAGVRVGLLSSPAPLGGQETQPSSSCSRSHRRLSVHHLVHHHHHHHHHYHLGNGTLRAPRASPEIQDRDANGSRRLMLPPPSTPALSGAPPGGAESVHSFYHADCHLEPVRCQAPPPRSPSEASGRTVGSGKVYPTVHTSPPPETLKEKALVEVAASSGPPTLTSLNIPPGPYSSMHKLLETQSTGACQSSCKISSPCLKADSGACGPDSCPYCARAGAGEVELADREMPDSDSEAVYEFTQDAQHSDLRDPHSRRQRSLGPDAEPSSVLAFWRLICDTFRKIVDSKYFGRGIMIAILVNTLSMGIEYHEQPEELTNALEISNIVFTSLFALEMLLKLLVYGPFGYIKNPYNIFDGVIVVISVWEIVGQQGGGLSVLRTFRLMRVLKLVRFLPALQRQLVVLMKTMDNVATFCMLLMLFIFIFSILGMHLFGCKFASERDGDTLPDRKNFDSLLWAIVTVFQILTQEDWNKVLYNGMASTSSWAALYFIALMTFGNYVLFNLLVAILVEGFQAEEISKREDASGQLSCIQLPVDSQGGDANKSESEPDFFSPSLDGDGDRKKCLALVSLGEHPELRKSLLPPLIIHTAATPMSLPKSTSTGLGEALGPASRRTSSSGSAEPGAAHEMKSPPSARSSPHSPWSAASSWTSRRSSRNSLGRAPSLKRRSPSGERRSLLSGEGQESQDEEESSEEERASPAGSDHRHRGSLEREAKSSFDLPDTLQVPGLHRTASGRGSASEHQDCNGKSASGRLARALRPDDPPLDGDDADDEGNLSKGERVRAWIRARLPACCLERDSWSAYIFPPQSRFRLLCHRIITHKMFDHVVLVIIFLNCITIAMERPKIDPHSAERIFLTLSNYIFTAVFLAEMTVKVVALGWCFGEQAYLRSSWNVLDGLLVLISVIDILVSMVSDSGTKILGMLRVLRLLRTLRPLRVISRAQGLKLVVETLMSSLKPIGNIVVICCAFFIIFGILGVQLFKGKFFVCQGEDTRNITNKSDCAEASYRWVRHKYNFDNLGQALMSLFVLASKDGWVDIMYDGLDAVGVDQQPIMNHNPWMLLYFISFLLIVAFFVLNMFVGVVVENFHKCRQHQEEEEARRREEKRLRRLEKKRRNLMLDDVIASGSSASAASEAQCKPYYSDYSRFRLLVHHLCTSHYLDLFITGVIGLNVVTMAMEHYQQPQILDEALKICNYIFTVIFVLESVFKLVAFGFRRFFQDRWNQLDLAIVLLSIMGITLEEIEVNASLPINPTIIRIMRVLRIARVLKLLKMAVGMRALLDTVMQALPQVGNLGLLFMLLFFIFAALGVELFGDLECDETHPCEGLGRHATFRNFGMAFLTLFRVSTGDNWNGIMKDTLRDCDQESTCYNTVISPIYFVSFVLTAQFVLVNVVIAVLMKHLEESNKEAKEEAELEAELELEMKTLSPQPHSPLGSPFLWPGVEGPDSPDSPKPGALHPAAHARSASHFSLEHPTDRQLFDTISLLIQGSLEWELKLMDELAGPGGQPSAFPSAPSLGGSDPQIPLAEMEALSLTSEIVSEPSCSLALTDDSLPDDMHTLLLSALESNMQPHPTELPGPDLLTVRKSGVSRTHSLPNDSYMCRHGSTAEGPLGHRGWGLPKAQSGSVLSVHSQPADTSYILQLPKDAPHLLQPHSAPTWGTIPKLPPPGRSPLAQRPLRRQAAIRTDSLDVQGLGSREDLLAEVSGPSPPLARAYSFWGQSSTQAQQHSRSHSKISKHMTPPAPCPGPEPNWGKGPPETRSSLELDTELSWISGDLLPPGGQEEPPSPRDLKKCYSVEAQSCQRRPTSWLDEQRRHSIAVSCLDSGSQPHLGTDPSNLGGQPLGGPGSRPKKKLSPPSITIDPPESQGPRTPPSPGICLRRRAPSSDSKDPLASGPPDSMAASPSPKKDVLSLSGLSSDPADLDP
Compound,IC50 [1],IC50 [2]
"CC(C)(C)NC(=O)CN[C@H]1CC[C@H](CNC(=O)c2cc(C(F)(F)F)cc(C(F)(F)F)c2)CC1 [Compound 55, N-((trans-4-(2-(tert-butylamino)-2-oxoethylamino)cyclohexyl)methyl)-3,5-bis(trifluoromethyl)benzamide]",≤ 300 nM,370 nM
"CCN(CC)C(=O)CN[C@H]1CC[C@H](CNC(=O)c2cc(C(F)(F)F)cc(C(F)(F)F)c2)CC1 [Compound 56, N-((trans-4-(2-(diethylamino)-2-oxoethylamino)cyclohexyl)methyl)-3,5-bis(trifluoromethyl)benzamide]",440 nM,590 nM
"CCC(CC)NC(=O)CN[C@H]1CC[C@H](CNC(=O)c2cc(C(F)(F)F)cc(C(F)(F)F)c2)CC1 [Compound 57, N-((trans-4-(2-oxo-2-(pentan-3-ylamino)ethylamino)cyclohexyl)methyl)-3,5-bis(trifluoromethyl)benzamide]",≤ 300 nM,430 nM
"CC(C)(C)c1nc(CN[C@H]2CC[C@H](CNC(=O)c3cc(C(F)(F)F)cc(C(F)(F)F)c3)CC2)no1 [Compound 66, N-((trans-4-((5-tert-butyl-1,2,4-oxadiazol-3-yl)methylamino)cyclohexyl)methyl)-3,5-bis(trifluoromethyl)benzamide]",1340 nM,3050 nM
"CCC1CCCN1C(=O)CN[C@H]1CC[C@H](CNC(=O)c2cc(C(F)(F)F)cc(C(F)(F)F)c2)CC1 (stereo partly drawn) [Compound 68, N-((trans-4-(2-(2-ethylpyrrolidin-1-yl)-2-oxoethylamino)cyclohexyl)methyl)-3,5-bis(trifluoromethyl)benzamide]",≤ 300 nM,560 nM
"CC(C)CNC(=O)CN[C@H]1CC[C@@H](CNC(=O)c2cc(C(F)(F)F)cc(C(F)(F)F)c2)CC1 [Compound 70, N-((cis-4-(2-(isobutylamino)-2-oxoethylamino)cyclohexyl)methyl)-3,5-bis(trifluoromethyl)benzamide]",330 nM,210 nM
"O=C(CNC[C@H]1CC[C@H](NC(=O)c2cc(C(F)(F)F)cc(C(F)(F)F)c2)CC1)NCC(F)(F)F [Compound 82, N-(trans-4-((2-oxo-2-(2,2,2-trifluoroethylamino)ethylamino)methyl)cyclohexyl)-3,5-bis(trifluoromethyl)benzamide]",2540 nM,2090 nM
"CC(C)(C)c1nc(CNC[C@H]2CC[C@H](NC(=O)c3cc(C(F)(F)F)cc(C(F)(F)F)c3)CC2)no1 [Compound 89, N-(trans-4-(((5-tert-butyl-1,2,4-oxadiazol-3-yl)methylamino)methyl)cyclohexyl)-3,5-bis(trifluoromethyl)benzamide]",1370 nM,1950 nM
"Cc1cc(CNC[C@H]2CC[C@H](NC(=O)c3cc(C(F)(F)F)cc(C(F)(F)F)c3)CC2)no1 [Compound 90, N-(trans-4-(((5-methylisoxazol-3-yl)methylamino)methyl)cyclohexyl)-3,5-bis(trifluoromethyl)benzamide]",3470 nM,3860 nM
"CC(C)(C)OC(=O)NCCN[C@H]1CC[C@@H](CNC(=O)c2cc(F)cc(C(F)(F)F)c2)CC1 [Compound 97, tert-butyl 2-(cis-4-((3-fluoro-5-(trifluoromethyl)benzamido)methyl)cyclohexylamino)ethylcarbamate]",900 nM,900 nM
"CC(C)(C)OC(=O)NCCN[C@H]1CC[C@@H](CNC(=O)c2cc(C(F)(F)F)cc(C(F)(F)F)c2)CC1 [Compound 98, tert-butyl 2-(cis-4-((3,5-bis(trifluoromethyl)benzamido)methyl)cyclohexylamino)ethylcarbamate]",410 nM,780 nM
"CC(C)(C)CC(=O)NCCN[C@H]1CC[C@H](CNC(=O)c2cc(C(F)(F)F)cc(C(F)(F)F)c2)CC1 [Compound 101, N-((trans-4-(2-(3,3-dimethylbutanamido)ethylamino)cyclohexyl)methyl)-3,5-bis(trifluoromethyl)benzamide]",1510 nM,2050 nM

# Next, values leading:
IC50 [1],IC50 [2],Compound
1000 nM,530 nM,"O=C(CN[C@H]1CC[C@H](CNC(=O)c2cc(C(F)(F)F)cc(C(F)(F)F)c2)CC1)NCC(F)(F)F [Compound 58, N-((trans-4-(2-oxo-2-(2,2,2-trifluoroethylamino)ethylamino)cyclohexyl)methyl)-3,5-bis(trifluoromethyl)benzamide]"
≤ 300 nM,620 nM,"CN(C(=O)CN[C@H]1CC[C@H](CNC(=O)c2cc(C(F)(F)F)cc(C(F)(F)F)c2)CC1)C1CCCC1 [Compound 59, N-((trans-4-(2-(cyclopentyl(methyl)amino)-2-oxoethylamino)cyclohexyl)methyl)-3,5-bis(trifluoromethyl)benzamide]"
1300 nM,1890 nM,"O=C(CN[C@H]1CC[C@H](CNC(=O)c2cc(C(F)(F)F)cc(C(F)(F)F)c2)CC1)NN1CCCCC1 [Compound 60, N-((trans-4-(2-oxo-2-(piperidin-1-ylamino)ethylamino)cyclohexyl)methyl)-3,5-bis(trifluoromethyl)benzamide]"
1590 nM,1730 nM,"O=C(NC[C@H]1CC[C@H](NCC(=O)N2CCC(F)(F)C2)CC1)c1cc(C(F)(F)F)cc(C(F)(F)F)c1 [Compound 61, N-((trans-4-(2-(3,3-difluoropyrrolidin-1-yl)-2-oxoethylamino)cyclohexyl)methyl)-3,5-bis(trifluoromethyl)benzamide]"
≤ 300 nM,310 nM,"C#CC(CC)(CC)NC(=O)CN[C@H]1CC[C@H](CNC(=O)c2cc(C(F)(F)F)cc(C(F)(F)F)c2)CC1 [Compound 62, N-((trans-4-(2-(3-ethylpent-1-yn-3-ylamino)-2-oxoethylamino)cyclohexyl)methyl)-3,5-bis(trifluoromethyl)benzamide]"
8020 nM,7360 nM,"COC1CCC(N(C)C(=O)CN[C@H]2CC[C@H](CNC(=O)c3cc(C(F)(F)F)cc(C(F)(F)F)c3)CC2)CC1 (stereo partly drawn) [Compound 65, N-((trans-4-(2-((4-methoxycyclohexyl)(methyl)amino)-2-oxoethylamino)cyclohexyl)methyl)-3,5-bis(trifluoromethyl)benzamide]"
5590 nM,2890 nM,"Cc1cc(CN[C@H]2CC[C@H](CNC(=O)c3cc(C(F)(F)F)cc(C(F)(F)F)c3)CC2)no1 [Compound 67, N-((trans-4-((5-methylisoxazol-3-yl)methylamino)cyclohexyl)methyl)-3,5-bis(trifluoromethyl)benzamide]"
≤ 300 nM,270 nM,"CCC(C)NC(=O)CN[C@H]1CC[C@@H](CNC(=O)c2cc(C(F)(F)F)cc(C(F)(F)F)c2)CC1 (stereo partly drawn) [Compound 71, N-((cis-4-(2-(sec-butylamino)-2-oxoethylamino)cyclohexyl)methyl)-3,5-bis(trifluoromethyl)benzamide]"
≤ 300 nM,230 nM,"CC1CCCCN1C(=O)CN[C@H]1CC[C@@H](CNC(=O)c2cc(C(F)(F)F)cc(C(F)(F)F)c2)CC1 (stereo partly drawn) [Compound 72, N-((cis-4-(2-(2-methylpiperidin-1-yl)-2-oxoethylamino)cyclohexyl)methyl)-3,5-bis(trifluoromethyl)benzamide]"
310 nM,700 nM,"Cc1ccc(NC(=O)CN[C@H]2CC[C@@H](CNC(=O)c3cc(C(F)(F)F)cc(C(F)(F)F)c3)CC2)nc1 [Compound 73, N-((cis-4-(2-(5-methylpyridin-2-ylamino)-2-oxoethylamino)cyclohexyl)methyl)-3,5-bis(trifluoromethyl)benzamide]"
2350 nM,650 nM,"CC(C)NC(=O)CN[C@H]1CC[C@H](CNC(=O)c2cc(C(F)(F)F)cc(C(F)(F)F)c2)CC1 [Compound 74, N-((trans-4-(2-(isopropylamino)-2-oxoethylamino)cyclohexyl)methyl)-3,5-bis(trifluoromethyl)benzamide]"
810 nM,430 nM,"CC(C)CNC(=O)CN[C@H]1CC[C@H](CNC(=O)c2cc(C(F)(F)F)cc(C(F)(F)F)c2)CC1 [Compound 75, N-((trans-4-(2-(isobutylamino)-2-oxoethylamino)cyclohexyl)methyl)-3,5-bis(trifluoromethyl)benzamide]"
≤ 300 nM,615 nM,"CC1CCCCN1C(=O)CN[C@H]1CC[C@H](CNC(=O)c2cc(C(F)(F)F)cc(C(F)(F)F)c2)CC1 (stereo partly drawn) [Compound 76, N-((trans-4-(2-(2-methylpiperidin-1-yl)-2-oxoethylamino)cyclohexyl)methyl)-3,5-bis(trifluoromethyl)benzamide]"
730 nM,1140 nM,"Cc1ccc(NC(=O)CN[C@H]2CC[C@H](CNC(=O)c3cc(C(F)(F)F)cc(C(F)(F)F)c3)CC2)nc1 [Compound 77, N-((trans-4-(2-(5-methylpyridin-2-ylamino)-2-oxoethylamino)cyclohexyl)methyl)-3,5-bis(trifluoromethyl)benzamide]"
1380 nM,1710 nM,"CC(C)CNC(=O)CNC[C@H]1CC[C@H](NC(=O)c2cc(C(F)(F)F)cc(C(F)(F)F)c2)CC1 [Compound 93, N-(trans-4-((2-(isobutylamino)-2-oxoethylamino)methyl)cyclohexyl)-3,5-bis(trifluoromethyl)benzamide]"
540 nM,1040 nM,"O=C(CNC[C@H]1CC[C@H](NC(=O)c2cc(C(F)(F)F)cc(C(F)(F)F)c2)CC1)Nc1ccccn1 [Compound 96, N-(trans-4-((2-oxo-2-(pyridin-2-ylamino)ethylamino)methyl)cyclohexyl)-3,5-bis(trifluoromethyl)benzamide]"
1030 nM,850 nM,"COc1cc(C(=O)NC[C@H]2CC[C@@H](NCCNC(=O)OC(C)(C)C)CC2)cc(C(F)(F)F)c1 [Compound 100, tert-butyl 2-(cis-4-((3-methoxy-5-(trifluoromethyl)benzamido)methyl)cyclohexylamino)ethylcarbamate]"
